Experimental data reported in article PMC2568956, “The Antimicrobial Peptide Histatin-5 Causes a Spatially Restricted Disruption on the Candida albicans Surface, Allowing Rapid Entry of the Peptide into the Cytoplasm” (PLoS Pathogens, 2008).

Columns and labels:
[1] = tested on: C. albicans cells; experiment: Hst-5 localization studies by fluorescence microscopy; assay type: cell-based, Candida albicans
Procedure: (§1) The intracellular localization of FITC-Hst-5 (5, 10, 20, and 50 µM) and FITC-m68 (5, 10, 20, 50, and 200 µM) was investigated either alone or in a double-labeling experiment using FM4-64 (Molecular Probes, Inc. Eugene, OR). Yeast cells in 50 µl (∼10^6 cells/ml) were incubated for 30 minutes at 30°C with 10 µM FITC-Hst-5 and 10 µM FM4-64; the cells were then washed twice with 10 mM NaN3 and 10 mM NaF in 20 mM PBS buffer, and analyzed immediately by wide-field fluorescence microscopy.
(§2) Wide-field fluorescence images were obtained on either Zeiss Axioplan 2 or the inverted Zeiss Axio Observer.Z1 Microscope (Carl Zeiss MicroImaging, Inc. Thornwood, NY) fluorescent system, equipped with the AttoArc HBO 100 and the X-Cite series 120 mercury lamps, respectively. Images were taken using a 100× NA 1.4 objective. Both fluorescence microscopes were equipped with GFP, RFP, and DAPI filter sets.

[2] = tested on: C. albicans vps36 and snf7 mutant cells; experiment: Hst-5 localization in vps36 and snf7 mutant cells by fluorescence microscopy; assay type: cell-based, Candida albicans; conditions: 10 µM FITC-Hst-5 and 10 µM FM4-64, 30 minutes, 30°C
Procedure: as §1, §2

[3] = tested on: C. albicans wild-type cells; experiment: Hst-5 localization in cells treated with latrunculin A or cytochalasin A; assay type: cell-based, Candida albicans; conditions: cells pre-treated with 50 µM latrunculin A or 5 µM cytochalasin A for 60 minutes at room temperature, then 5 µM FITC-Hst-5, 30 minutes, 30°C
Procedure: (§3) To depolarize F-actin, cells were treated with either 5 µM cytochalasin A or 50 µM latrunculin A (Sigma, St. Louis, MO) for 1 hour at room temperature. The control cells (wild-type and myo5) were treated with the equivalent volume of the DMSO solvent (0.5%). The cells were then exposed to 5 µM of FITC-Hst-5 for 30 minutes at 30°C. The cells were then washed twice with buffer containing NaN3 and NaF and analyzed by wide-field fluorescence microscopy and flow cytometry.

[4] = tested on: C. glabrata; experiment: FITC-Hst-5 localization in C. glabrata by fluorescence microscopy; assay type: cell-based, Candida glabrata; conditions: 50 µM FITC-Hst-5, 30 minutes, 30°C, fixed exposure time 9 ms
Procedure: as §1, §2

[5] = tested on: S. cerevisiae; experiment: FITC-Hst-5 localization in S. cerevisiae by fluorescence microscopy; assay type: cell-based, Saccharomyces cerevisiae; conditions: 50 µM FITC-Hst-5, 30 minutes, 30°C, fixed exposure time 9 ms
Procedure: as §1, §2

[6] = tested on: C. albicans cells; assay type: cell-based, Candida albicans; conditions: 10 µM FITC-Hst-5, 30 minutes, 30°C, cell sorting, ~200 cells plated on YPD, overnight 30°C, triplicate cultures
Procedure: C. albicans cells were incubated for 30 minutes with 10 µM of FITC-Hst-5 at 30°C. The cells were then washed twice with 20 mM PBS buffer and under went flow cytometric cell sorting using the DAKO Cytomation MoFlo Flow Cytometer (DAKO, Glostrup, Denmark). The results were analyzed on a PC using the software package Summit (version 4.0) provided by DAKO. The cells were sorted by gating the two peaks of the histogram representing vacuolar and cytoplasmic localization of Hst-5. Cellular localization of Hst-5 was confirmed with fluorescence microscopy. The sorted cells were then plated onto YPD plates and incubated overnight at 30°C (data as a mean±1SD of triplicate cultures).

[7] = tested on: C. albicans; parameters: method as in 4 sources, one per row (each row's own in cited_ref): ref 3, 4 = [3]; PMID 2406266; 3 Raj PA Edgerton M Levine MJ 1990 Salivary histatin 5: dependence of sequence, chain length, and helical conformation for candidacidal activity. J Biol Chem 265 3898 3905 2406266 || [4]; PMID 1855975; doi:10.1128/iai.59.8.2549-2554.1991; 4 Xu T Levitz SM Diamond RD Oppenheim FG 1991 Anticandidal activity of major human salivary histatins. Infect Immun 59 2549 2554 1855975 10.1128/iai.59.8.2549-2554.1991 PMC258054 ||| ref 37 = [37]; PMID 8945538; doi:10.1128/iai.64.12.5000-5007.1996; 37 Tsai H Raj PA Bobek LA 1996 Candidacidal activity of recombinant human salivary histatin-5 and variants. Infect Immun 64 5000 5007 8945538 10.1128/iai.64.12.5000-5007.1996 PMC174480 ||| ref 10, 13, 49 = [10]; PMID 10066791; doi:10.1074/jbc.274.11.7286; 10 Helmerhorst EJ Breeuwer P van't Hoff W Walgreen-Weterings E Oomen LC 1999 The cellular target of histatin 5 on Candida albicans is the energized mitochondrion. J Biol Chem 274 7286 7291 10066791 10 || [13]; PMID 10471575; doi:10.1128/aac.43.9.2256; 13 Xu Y Ambudkar I Yamagishi H Swaim W Walsh TJ 1999 Histatin 3-mediated killing of Candida albicans : effect of extracellular salt concentration on binding and internalization. Antimicrob Agents Chem || [49]; PMID 11083804; doi:10.1128/iai.68.12.6848-6856.2000; 49 Koshlukova SE Araujo MW Baev D Edgerton M 2000 Released ATP is an extracellular cytotoxic mediator in salivary histatin 5-induced killing of Candida albicans . Infect Immun 68 6848 6856 11083804 10 ||| ref 65, 66 = [65]; PMID 11204768; doi:10.1023/a:1026572128004; 65 van't Hoff W Reijnders I Helmerhorst E Walgreen-Weterings E Simoons-Smit I 2000 Synergistic effects of low doses of histatin 5 and its analogues on amphotericin B anti-mycotic activity. Antonie Van || [66]; PMID 16291868; doi:10.1093/jac/dki402; 66 Tanida T Okamoto T Ueta E Yamamoto T Osaki T 2006 Antimicrobial peptides enhance the candidacidal activity of antifungal drugs by promoting the efflux of ATP from Candida cells. J Antimicrob Chemot; conditions: cited from earlier work
[8] = liposome model system; cited from earlier work
Procedure: Histatins are a family of low-molecular weight histidine-rich cationic peptides that are found specifically in human salivary secretions. […] It kills C. albicans in vitro at physiological concentrations (15–30 µM),[4]. Structural studies of Hst-5 have shown that it takes on a random coil structure in aqueous solvents and adopts a largely α-helical conformation in non-aqueous solutions [5],[6]. Many antimicrobial cationic peptides form either α ...

[9] = tested on: C. glabrata; conditions: cited from earlier work
[10] = tested on: S. cerevisiae; conditions: cited from earlier work
[11] = tested on: C. albicans cells; experiment: Concentration-dependent localization of FITC-Hst-5 by flow cytometry (FACS analysis); assay type: cell-based, Candida albicans; conditions: 30°C, ~10^6 cells/ml; for Percent of population: M2 (Hst-5 localized to the cytoplasm): high intensity peak; for Percent of population: M1 (Hst-5 localized to the vacuole): low intensity peak
Procedure: as §1
(§4) The distribution of FITC-labeled Hst-5 over the cell population was investigated by using a dual laser fluorescence-activated cell sorter (BD FACSCalibur System, Becton Dickinson, San Jose, CA). The results were analyzed with the software package CellQuest Pro (version 5.1.1) provided by Beckton Dickinson.

[12] = tested on: C. albicans myo5 cells; experiment: FITC-Hst-5 localization in myo5 mutant cells by flow cytometry; assay type: cell-based, Candida albicans; conditions: 10 µM FITC-Hst-5 and 10 µM FM4-64, 10 minutes, 30°C
Procedure: The intracellular localization of FITC-Hst-5 (5, 10, 20, and 50 µM) and FITC-m68 (5, 10, 20, 50, and 200 µM) was investigated either alone or in a double-labeling experiment using FM4-64 (Molecular Probes, Inc. Eugene, OR). […]
as §3, §4

[13] = 50 and 200 µM FITC-m68, 30°C, 30 minutes

With C[C@H](NC(=O)[C@H](Cc1cnc[nH]1)NC(=O)[C@H](CO)NC(=O)[C@@H](N)CC(=O)O)C(=O)N[C@@H](CCCCN)C(=O)N[C@@H](CCCNC(=N)N)C(=O)N[C@@H](Cc1cnc[nH]1)C(=O)N[C@@H](Cc1cnc[nH]1)C(=O)NCC(=O)N[C@@H](Cc1ccc(O)cc1)C(=O)N[C@@H](CCCCN)C(=O)N[C@@H](CCCNC(=N)N)C(=O)N[C@@H](CCCCN)C(=O)N[C@@H](Cc1ccccc1)C(=O)N[C@@H](Cc1cnc[nH]1)C(=O)N[C@@H](CCC(=O)O)C(=O)N[C@@H](CCCCN)C(=O)N[C@@H](Cc1cnc[nH]1)C(=O)N[C@@H](Cc1cnc[nH]1)C(=O)N[C@@H](CO)C(=O)N[C@@H](Cc1cnc[nH]1)C(=O)N[C@@H](CCCNC(=N)N)C(=O)NCC(=O)N[C@@H](Cc1ccc(O)cc1)C(=O)O [Hst-5, histatin-5] the cellular localization ([1]; 5 µM FITC-Hst-5, 30 minutes, fluorescence microscopy) was “mostly vacuolar localization”, the cellular localization ([1]; 20 µM FITC-Hst-5, pH 4.5, 30 minutes, 30°C) was “a preponderance of cells had Hst-5 localized within the cytoplasm” and the cellular localization ([1]; 20 µM FITC-Hst-5, pH 9.0, 30 minutes, 30°C) was “no cytoplasmic localization was observed”. The cellular localization ([1]; 50 µM FITC-Hst-5, 30 minutes, fluorescence microscopy) was “largely cytoplasmic localization with little vacuolar fluorescence”, the cellular localization [2] was “excluded from the lumen of vacuole-like membrane structures” and the cellular localization [3] was “observed in the cytoplasm in a majority of the cells”. The cellular localization [4] was “predominantly localized to the vacuole”, the cellular localization [5] was “found bound to the cell surface” and the “colony formation of sorted cells with cytoplasmic Hst-5” value [6] was “none”. For the same molecule, the “killing of C. albicans in combination” value ([7]; combined with amphotericin B) was “strong synergistic killing”, the “concentration that kills C. albicans in vitro (physiological concentrations)” value ([7]; in vitro) was 15–30 µM and the lytic effect [8] was “little lytic effect”. For the same molecule, the “resistance of the yeast to the peptide” value [9] was “marked resistance” and the “resistance of the yeast to the peptide” value [10] was “marked resistance”.

With “DSHAKRHHGYKREFHEKHHSHGGY [FITC-m68, FITC-labeled Hst-5 m68]” the cytoplasmic localization ([1]; 5, 10 and 20 µM FITC-m68, 30°C, 30 minutes (data not shown)) was “not observed”, the cellular localization [1, 13] was “localized to the vacuole in the majority of cells” and the cytoplasmic localization [1, 13] was “only seen in a small portion of the cell population”.

In the case of “DSHAKRHHGYKREFHEKHHSHGGY [m68, variant of Hst-5 reported by Tsai et al.: lysine-13 replaced with glutamic acid and arginine 22 with glycine, reference compound]”, the “killing ability relative to Hst-5” value [7] is listed as “significant reduction”.

With “DSHAKRHHGYKRKFHEKHHSHRGY [FITC-Hst-5, FITC-labeled Hst-5]” the “Percent of population: M2 (Hst-5 localized to the cytoplasm)” value (“Percent of population: M2” below) ([11]; 5 µM FITC-Hst-5, 30 minutes) was 1.94%, the “Percent of population: M1 (Hst-5 localized to the vacuole)” value (shortened to “Percent of population: M1”) ([11]; 5 µM FITC-Hst-5, 30 minutes) was 96.02% and the “Percent of population: M2” value ([11]; 10 µM FITC-Hst-5, 30 minutes) was 34.63%. For the same molecule, the “Percent of population: M1” value ([11]; 10 µM FITC-Hst-5, 30 minutes) was 64.02%, the “Percent of population: M2” value ([11]; 20 µM FITC-Hst-5, 30 minutes) was 70.43% and the “Percent of population: M1” value ([11]; 20 µM FITC-Hst-5, 30 minutes) was 29.69%. The “Percent of population: M2” value ([11]; 50 µM FITC-Hst-5, 30 minutes) was 93.44%, the “Percent of population: M1” value ([11]; 50 µM FITC-Hst-5, 30 minutes) was 6.50% and the “population with cytoplasmic localization” value [12] was 19.01%. The “population with plasma membrane localization” value [12] was 80.99%.
